Patent US12404279B2, “Deubiquitinase inhibitors and methods of use thereof” (Molecure S.A., priority 2021, dated 2025)
Where a name gives a salt, the structure may show the parent alone.

Molecular target: full-length USP7 (Homo sapiens (Human), UniProt Q93009)
Assay: Enzymatic assay to determine IC50 of USP7 inhibitors (Ubiquitin-Rhodamine 110 cleavage)
Format: biochemical
Conditions: for IC50: 0.5 nM USP7, 0.5 μM Ubiquitin-Rhodamine 110, 45 min at 37° C.; for inhibition at 1 µM: at 1 μM of the test compound, given where IC50 not determined yet, read-out: percent value of inhibition of USP7 activity
Procedure, shortened: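 Enzyme: 0.5 nM full-length USP7 in HEPES pH 7.5 buffer with NaCl, DTT, BSA and Tween20, given 15 min at room temperature with DTT before compounds were added.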

Chain of full-length USP7 (Q93009 whole entry): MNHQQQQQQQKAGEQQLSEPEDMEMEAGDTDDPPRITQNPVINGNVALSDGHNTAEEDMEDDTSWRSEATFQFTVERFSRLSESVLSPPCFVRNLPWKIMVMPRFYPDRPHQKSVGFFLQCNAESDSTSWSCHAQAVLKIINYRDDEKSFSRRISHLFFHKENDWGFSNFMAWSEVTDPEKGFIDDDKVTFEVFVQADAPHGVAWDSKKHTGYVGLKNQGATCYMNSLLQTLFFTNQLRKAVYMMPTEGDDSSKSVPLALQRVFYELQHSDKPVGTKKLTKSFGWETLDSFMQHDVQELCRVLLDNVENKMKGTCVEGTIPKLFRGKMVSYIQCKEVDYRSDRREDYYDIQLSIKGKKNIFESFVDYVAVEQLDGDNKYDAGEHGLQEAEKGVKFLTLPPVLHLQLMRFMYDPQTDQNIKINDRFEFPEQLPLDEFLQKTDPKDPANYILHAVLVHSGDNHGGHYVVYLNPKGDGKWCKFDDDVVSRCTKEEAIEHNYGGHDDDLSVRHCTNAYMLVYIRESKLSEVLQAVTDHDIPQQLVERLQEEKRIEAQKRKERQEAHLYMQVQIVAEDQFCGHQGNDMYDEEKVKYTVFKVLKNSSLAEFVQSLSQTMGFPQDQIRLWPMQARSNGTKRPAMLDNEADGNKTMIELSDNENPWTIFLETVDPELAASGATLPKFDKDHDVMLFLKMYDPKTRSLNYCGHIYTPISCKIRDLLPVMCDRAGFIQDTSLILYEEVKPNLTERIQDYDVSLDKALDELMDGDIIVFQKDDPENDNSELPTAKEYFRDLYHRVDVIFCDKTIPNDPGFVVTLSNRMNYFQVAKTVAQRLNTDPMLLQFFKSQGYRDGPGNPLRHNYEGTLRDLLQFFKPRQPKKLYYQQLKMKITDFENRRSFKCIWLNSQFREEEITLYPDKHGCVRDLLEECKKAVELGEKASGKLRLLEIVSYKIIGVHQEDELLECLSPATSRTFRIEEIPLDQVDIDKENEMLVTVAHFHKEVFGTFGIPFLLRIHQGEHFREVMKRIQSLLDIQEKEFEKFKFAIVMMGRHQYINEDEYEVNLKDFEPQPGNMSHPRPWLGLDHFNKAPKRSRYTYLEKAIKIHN

| Structure (SMILES) | IC50 [µM] | inhibition at 1 µM [%] |
| --- | --- | --- |
| Cc1cc(C(F)(F)F)nc(-c2ccnc3cc(CN4C(=O)C5C(C4=O)C5(C)C)sc23)c1C(=O)N1CC[C@H](C(F)F)C1 (stereo partly drawn) [Example 104, 3-((7-(3-((S)-3-(difluoromethyl)pyrrolidine-1-carbonyl)-4-methyl-6-(trifluoromethyl)pyridin-2-yl)thieno[3,2-b]pyridin-2-yl)methyl)-6,6-dimethyl-3-azabicyclo[3.1.0]hexane-2,4-dione hydrochloride] | < 0.5 | – |
| Cc1cc(C(F)(F)F)nc(-c2ccnc3cc(CN4C(=O)C5C(C4=O)C5(C)C)sc23)c1C(=O)N1CC[C@H](CF)C1 (stereo partly drawn) [Example 105, 3-((7-(3-((S)-3-(fluoromethyl)pyrrolidine-1-carbonyl)-4-methyl-6-(trifluoromethyl)pyridin-2-yl)thieno[3,2-b]pyridin-2-yl)methyl)-6,6-dimethyl-3-azabicyclo[3.1.0]hexane-2,4-dione hydrochloride] | < 0.5 | – |
| Cc1cc(C(F)(F)F)nc(-c2ccnc3cc(CN4C(=O)C5C(C4=O)C5(C)C)sc23)c1C(=O)N1C[C@@H](N)[C@@H](C)C1 (stereo partly drawn) [Example 106, 3-((7-(3-((3S,4S)-3-amino-4-methylpyrrolidine-1-carbonyl)-4-methyl-6-(trifluoromethyl)pyridin-2-yl)thieno[3,2-b]pyridin-2-yl)methyl)-6,6-dimethyl-3-azabicyclo[3.1.0]hexane-2,4-dione hydrochloride] | < 0.5 | – |
| Cc1cc(C(F)(F)F)nc(-c2ccnc3cc(CN4C(=O)C5C(C4=O)C5(C)C)sc23)c1C(=O)N1C[C@@H](C)[C@H](N)C1 (stereo partly drawn) [Example 107, 3-((7-(3-((3S,4R)-3-amino-4-methylpyrrolidine-1-carbonyl)-4-methyl-6-(trifluoromethyl)pyridin-2-yl)thieno[3,2-b]pyridin-2-yl)methyl)-6,6-dimethyl-3-azabicyclo[3.1.0]hexane-2,4-dione hydrochloride] | < 0.5 | – |
| Cc1cc(C(F)(F)F)nc(-c2ccnc3cc(CN4C(=O)C5C(C4=O)C5(C)C)sc23)c1C(=O)N1C[C@H]2CCN[C@H]2C1 (stereo partly drawn) [Example 108, 6,6-dimethyl-3-((7-(4-methyl-3-((3aR,6aR)-octahydropyrrolo[3,4-b]pyrrole-5-carbonyl)-6-(trifluoromethyl)pyridin-2-yl)thieno[3,2-b]pyridin-2-yl)methyl)-3-azabicyclo[3.1.0]hexane-2,4-dione dihydrochloride] | < 0.5 | – |
| Cc1cc(C(F)(F)F)nc(-c2ccnc3cc(CN4C(=O)C5C(C4=O)C5(C)C)sc23)c1C(=O)N1CC[C@H](NC(=O)[C@@H](N)C(C)C)C1 (stereo partly drawn) [Example 109, (2S)-2-amino-N-((3S)-1-(2-(2-((6,6-dimethyl-2,4-dioxo-3-azabicyclo[3.1.0]hexan-3-yl)methyl)thieno[3,2-b]pyridin-7-yl)-4-methyl-6-(trifluoromethyl)nicotinoyl)pyrrolidin-3-yl)-3-methylbutanamide dihydrochloride] | < 0.5 | – |
| Cc1cc(C(F)(F)F)nc(-c2ccnc3cc(CN4C(=O)C5C(C4=O)C5(C)C)sc23)c1C(=O)N1CC[C@H](NC(=O)[C@H](C)N)C1 (stereo partly drawn) [Example 110, (2S)-2-amino-N-((3S)-1-(2-(2-((6,6-dimethyl-2,4-dioxo-3-azabicyclo[3.1.0]hexan-3-yl)methyl)thieno[3,2-b]pyridin-7-yl)-4-methyl-6-(trifluoromethyl)nicotinoyl)pyrrolidin-3-yl)propanamide dihydrochloride] | 0.5 to 1 | – |
| Cc1cc(C(F)(F)F)nc(-c2ccnc3cc(CN4C(=O)C5C(C4=O)C5(C)C)sc23)c1C(=O)NC1CCNCC1 (stereo not shown) [Example 111, 2-(2-((6,6-dimethyl-2,4-dioxo-3-azabicyclo[3.1.0]hexan-3-yl)methyl)thieno[3,2-b]pyridin-7-yl)-4-methyl-N-(piperidin-4-yl)-6-(trifluoromethyl)nicotinamide dihydrochloride] | – | < 20 |
| Cc1cc(C(F)(F)F)nc(-c2ccnc3cc(CN4C(=O)C5C(C4=O)C5(C)C)sc23)c1C(=O)N1CCC(N)CC1 (stereo not shown) [Example 112, 3-((7-(3-(4-aminopiperidine-1-carbonyl)-4-methyl-6-(trifluoromethyl)pyridin-2-yl)thieno[3,2-b]pyridin-2-yl)methyl)-6,6-dimethyl-3-azabicyclo[3.1.0]hexane-2,4-dione dihydrochloride] | < 0.5 | – |
| Cc1cc(C(F)(F)F)nc(-c2ccnc3cc(CN4C(=O)C5C(C4=O)C5(C)C)sc23)c1C(=O)N1CC[C@H](O)C1 (stereo partly drawn) [Example 113, 3-((7-(3-((S)-3-hydroxypyrrolidine-1-carbonyl)-4-methyl-6-(trifluoromethyl)pyridin-2-yl)thieno[3,2-b]pyridin-2-yl)methyl)-6,6-dimethyl-3-azabicyclo[3.1.0]hexane-2,4-dione hydrochloride] | < 0.5 | – |
| Cc1cc(C(F)(F)F)nc(-c2ccnc3cc(CN4C(=O)C5C(C4=O)C5(C)C)sc23)c1C(=O)N1CC[C@H](F)C1 (stereo partly drawn) [Example 114, 3-((7-(3-((S)-3-fluoropyrrolidine-1-carbonyl)-4-methyl-6-(trifluoromethyl)pyridin-2-yl)thieno[3,2-b]pyridin-2-yl)methyl)-6,6-dimethyl-3-azabicyclo[3.1.0]hexane-2,4-dione hydrochloride] | < 0.5 | – |
| Cc1cc(C(F)(F)F)nc(-c2ccnc3cc(CN4C(=O)C5C(C4=O)C5(C)C)sc23)c1C(=O)N1CC[C@H](CN)C1 (stereo partly drawn) [Example 115, 3-((7-(3-((R)-3-(aminomethyl)pyrrolidine-1-carbonyl)-4-methyl-6-(trifluoromethyl)pyridin-2-yl)thieno[3,2-b]pyridin-2-yl)methyl)-6,6-dimethyl-3-azabicyclo[3.1.0]hexane-2,4-dione dihydrochloride] | 0.5 to 1 | – |
| Cc1cc(C(F)(F)F)nc(-c2ccnc3cc(CN4C(=O)C5C(C4=O)C5(C)C)sc23)c1C(=O)N1CC[C@@H]2CNC[C@@H]21 (stereo partly drawn) [Example 116, 6,6-dimethyl-3-((7-(4-methyl-3-((3aR,6aR)-octahydropyrrolo[3,4-b]pyrrole-1-carbonyl)-6-(trifluoromethyl)pyridin-2-yl)thieno[3,2-b]pyridin-2-yl)methyl)-3-azabicyclo[3.1.0]hexane-2,4-dione dihydrochloride] | < 0.5 | – |
| Cc1cc(C(F)(F)F)nc(-c2ccnc3cc(CN4C(=O)C5C(C4=O)C5(C)C)sc23)c1C(=O)N1C[C@@H](N)[C@H](F)C1 (stereo partly drawn) [Example 117, 3-((7-(3-((3R,4R)-3-amino-4-fluoropyrrolidine-1-carbonyl)-4-methyl-6-(trifluoromethyl)pyridin-2-yl)thieno[3,2-b]pyridin-2-yl)methyl)-6,6-dimethyl-3-azabicyclo[3.1.0]hexane-2,4-dione dihydrochloride] | < 0.5 | – |
| Cc1cc(Cl)cc(-c2ccnc3cc(CN4C(=O)C5C(C4=O)C5(C)C)sc23)c1NC(=O)C1CCNCC1 (stereo not shown) [Example 118, N-(4-chloro-2-(2-((6,6-dimethyl-2,4-dioxo-3-azabicyclo[3.1.0]hexan-3-yl)methyl)thieno[3,2-b]pyridin-7-yl)-6-methylphenyl)piperidine-4-carboxamide 2,2,2-trifluoroacetate] | < 0.5 | – |
| Cc1cc(-c2ccnc3cc(CN4C(=O)C5C(C4=O)C5(C)C)sc23)c(O[C@H]2CCCNC2)cn1 (stereo partly drawn) [Example 119, 6,6-dimethyl-3-((7-(2-methyl-5-(((S)-piperidin-3-yl)oxy)pyridin-4-yl)thieno[3,2-b]pyridin-2-yl)methyl)-3-azabicyclo[3.1.0]hexane-2,4-dione 2,2,2-trifluoroacetate] | – | < 20 |
| Cc1nc(Cl)cc(-c2ccnc3cc(CN4C(=O)C5C(C4=O)C5(C)C)sc23)c1NC(=O)[C@@H]1CCNC1 (stereo partly drawn) [Example 120, (3R)—N-(6-chloro-4-(2-((6,6-dimethyl-2,4-dioxo-3-azabicyclo[3.1.0]hexan-3-yl)methyl)thieno[3,2-b]pyridin-7-yl)-2-methylpyridin-3-yl)pyrrolidine-3-carboxamide 2,2,2-trifluoroacetate] | 1 to 10 | – |
| Cc1cc(Cl)nc(-c2ccnc3cc(CN4C(=O)C5C(C4=O)C5(C)C)sc23)c1N1CCCNC1=O (stereo not shown) [Example 121, 3-((7-(6-chloro-4-methyl-3-(2-oxotetrahydropyrimidin-1(2H)-yl)pyridin-2-yl)thieno[3,2-b]pyridin-2-yl)methyl)-6,6-dimethyl-3-azabicyclo[3.1.0]hexane-2,4-dione 2,2,2-trifluoroacetate] | 0.5 to 1 | – |
| Cc1cc(Cl)nc(-c2ccnc3cc(CN4C(=O)C5C(C4=O)C5(C)C)sc23)c1NC1CNC1 (stereo not shown) [Example 122, 3-((7-(3-(azetidin-3-ylamino)-6-chloro-4-methylpyridin-2-yl)thieno[3,2-b]pyridin-2-yl)methyl)-6,6-dimethyl-3-azabicyclo[3.1.0]hexane-2,4-dione tetrahydrochloride] | < 0.5 | – |
| Cc1cc(Cl)nc(-c2ccnc3cc(CN4C(=O)C5C(C4=O)C5(C)C)sc23)c1NC1CC(F)(F)C1 (stereo not shown) [Example 123, 3-((7-(6-chloro-3-((3,3-difluorocyclobutyl)amino)-4-methylpyridin-2-yl)thieno[3,2-b]pyridin-2-yl)methyl)-6,6-dimethyl-3-azabicyclo[3.1.0]hexane-2,4-dione 2,2,2-trifluoroacetate] | 0.5 to 1 | – |
| Cc1cc(Cl)nc(-c2ccnc3cc(CN4C(=O)C5C(C4=O)C5(C)C)sc23)c1NC1CCNC1 (stereo not shown) [Example 126, 3-((7-(6-chloro-4-methyl-3-(pyrrolidin-3-ylamino)pyridin-2-yl)thieno[3,2-b]pyridin-2-yl)methyl)-6,6-dimethyl-3-azabicyclo[3.1.0]hexane-2,4-dione tetrahydrochloride] | < 0.5 | – |
| Cc1cc(Cl)nc(-c2ccnc3cc(CN4C(=O)C5C(C4=O)C5(C)C)sc23)c1NC1CCNCC1 (stereo not shown) [Example 127, 3-((7-(6-chloro-4-methyl-3-(piperidin-4-ylamino)pyridin-2-yl)thieno[3,2-b]pyridin-2-yl)methyl)-6,6-dimethyl-3-azabicyclo[3.1.0]hexane-2,4-dione tetrahydrochloride] | < 0.5 | – |
